Laboratory results: PubChem BioAssay AID248 (DTP/NCI, 2004)
Values joined by “and” are separate entries in the source; they are usually repeats but may differ in a detail not shown here. Identical values can stand only once. Inconclusive results and toxic doses are left out. No stated cut-off is given here; in the data, active means T/C of 150% or more; inactive means T/C below 125%.

Tested on: L1210 leukemia ip in BDF1 mice, survival T/C
Test: NCI In Vivo Anticancer Drug Screen. Data for tumor model L1210 Leukemia (intraperitoneal) in B6D2F1 (BDF1) mice
Details: endpoint: mean survival time, higher = longer survival
Outline: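 Tumor cells were implanted, animals were treated, and survival was followed. The result divides the treated measurement by the vehicle-control measurement.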

[1] = dose: 50.0 mg/kg/injection, schedule: Q01DX001 (ip), vehicle: carboxymethylcellulose (CMC)
[2] = dose: 100.0 mg/kg/injection, schedule: Q01DX001 (ip), vehicle: carboxymethylcellulose (CMC)
[3] = dose: 200.0 mg/kg/injection, schedule: Q01DX001 (ip), vehicle: carboxymethylcellulose (CMC)
[4] = dose: 400.0 mg/kg/injection, schedule: Q01DX001 (ip), vehicle: carboxymethylcellulose (CMC)
[5] = dose: 100.0 mg/kg/injection, schedule: Q01DX009 (ip), vehicle: Klucel (hydroxypropylcellulose) (HPC)
[6] = dose: 100.0 mg/kg/injection, schedule: Q04DX003 (ip), vehicle: Klucel (hydroxypropylcellulose) (HPC)
[7] = dose: 200.0 mg/kg/injection, schedule: Q01DX009 (ip), vehicle: Klucel (hydroxypropylcellulose) (HPC)
[8] = dose: 200.0 mg/kg/injection, schedule: Q04DX003 (ip), vehicle: Klucel (hydroxypropylcellulose) (HPC)
[9] = dose: 400.0 mg/kg/injection, schedule: Q01DX009 (ip), vehicle: Klucel (hydroxypropylcellulose) (HPC)
[10] = dose: 400.0 mg/kg/injection, schedule: Q04DX003 (ip), vehicle: Klucel (hydroxypropylcellulose) (HPC)
[11] = dose: 100.0 mg/kg/injection, schedule: Q01DX009 (ip), vehicle: saline with Tween-80
[12] = dose: 200.0 mg/kg/injection, schedule: Q01DX009 (ip), vehicle: saline with Tween-80
[13] = dose: 50.0 mg/kg/injection, schedule: Q01DX001 (ip), vehicle: saline
[14] = dose: 100.0 mg/kg/injection, schedule: Q01DX001 (ip), vehicle: saline
[15] = dose: 200.0 mg/kg/injection, schedule: Q01DX001 (ip), vehicle: saline
[16] = dose: 400.0 mg/kg/injection, schedule: Q01DX001 (ip), vehicle: saline
[17] = dose: 50.0 mg/kg/injection, schedule: Q01DX009 (ip), vehicle: Klucel (hydroxypropylcellulose) (HPC)

Measured: T/C

O=c1[nH]c2c(c(=O)[nH]1)OCN(Cc1ccccc1)C2
inactive: [1] 98 % of control | [2] 105 % of control | [3] 100 % of control | [4] 100 % of control

Cc1ccc(S(=O)(=O)OCCN(CCOS(=O)(=O)c2ccc(C)cc2)S(=O)(=O)c2ccc(C)cc2)cc1
inactive: [5] 94 % of control | [6] 94 % of control | [7] 89 % of control | [8] 91 % of control | [9] 96 % of control | [10] 91 % of control

N=c1c2cnn(C3OC(CO)C(O)C3O)c2ncn1N (stereo not given)
inactive: dose: 6.25 mg/kg/injection, schedule: Q01DX009 (ip), vehicle: water 112 % of control | dose: 12.5 mg/kg/injection, schedule: Q01DX009 (ip), vehicle: water 121 % of control

CC(C)COC(=O)C1(N)CCCC1
inactive: dose: 30.0 mg/kg/injection, schedule: Q01DX Z (ip), vehicle: saline 113 % of control | dose: 45.0 mg/kg/injection, schedule: Q01DX009 (ip), vehicle: saline 109 % of control | dose: 45.0 mg/kg/injection, schedule: Q01DX Z (ip), vehicle: saline 121 % of control | dose: 66.0 mg/kg/injection, schedule: Q01DX009 (ip), vehicle: saline 114 % of control | dose: 150.0 mg/kg/injection, schedule: Q01DX Z (ip), vehicle: saline 114 % of control and 118 % of control | dose: 224.0 mg/kg/injection, schedule: Q01DX Z (ip), vehicle: saline 120 % of control | dose: 336.0 mg/kg/injection, schedule: Q01DX Z (ip), vehicle: saline 103 % of control

CC(C)C1=CC2=CCC3C(C)(C(N)=O)CCCC3(C)C2CC1CC#N (stereo not given)
inactive: [11] 93 % of control | [12] 93 % of control | dose: 200.0 mg/kg/injection, schedule: Q04DX003 (ip), vehicle: saline with Tween-80 91 % of control | dose: 400.0 mg/kg/injection, schedule: Q01DX009 (ip), vehicle: saline with Tween-80 94 % of control | dose: 400.0 mg/kg/injection, schedule: Q04DX003 (ip), vehicle: saline with Tween-80 93 % of control

O=[N+]([O-])c1ccc(S(=O)(=O)n2cccc2)cc1
inactive: [13] 98 % of control | [14] 95 % of control | [15] 95 % of control | [16] 98 % of control

COc1cc2c(cc1OC(C)=O)C(=O)CCC=C2
inactive: dose: 100.0 mg/kg/injection, schedule: Q01DX009 (ip), vehicle: saline 113 % of control | dose: 100.0 mg/kg/injection, schedule: Q04DX003 (ip), vehicle: other 110 % of control | dose: 200.0 mg/kg/injection, schedule: Q01DX009 (ip), vehicle: saline 103 % of control | dose: 200.0 mg/kg/injection, schedule: Q04DX003 (ip), vehicle: other 115 % of control | dose: 400.0 mg/kg/injection, schedule: Q01DX009 (ip), vehicle: saline 95 % of control | dose: 400.0 mg/kg/injection, schedule: Q04DX003 (ip), vehicle: other 103 % of control

CCC(=O)c1ccc(OC(=O)Nc2ccc(C)c(NC(=O)Oc3ccc(C(=O)CC)cc3)c2)cc1
inactive: dose: 100.0 mg/kg/injection, schedule: Q01DX009 (ip), vehicle: other 107 % of control | dose: 200.0 mg/kg/injection, schedule: Q01DX009 (ip), vehicle: other 100 % of control

CC1([N+](=O)[O-])COP(=O)(NC2CC2)OC1 (stereo not given)
inactive: [1] 97 % of control | [2] 97 % of control | [3] 103 % of control | [4] 97 % of control

CN(C)c1ccc(N=Nc2cccc(Cl)c2)cc1
inactive: [5] 97 % of control | [7] 97 % of control | [9] 90 % of control

CC(=O)NC(C=O)C(OC(C)=O)C(OC(C)=O)C(COC(C)=O)OC(C)=O (stereo not given)
inactive: dose: 100.0 mg/kg/injection, schedule: Q04DX002 (ip), vehicle: saline with Tween-80 100 % of control | dose: 200.0 mg/kg/injection, schedule: Q04DX002 (ip), vehicle: saline with Tween-80 107 % of control | dose: 400.0 mg/kg/injection, schedule: Q04DX002 (ip), vehicle: saline with Tween-80 96 % of control

CC1CCCC1Sc1ccccc1 (stereo not given)
inactive: [14] 91 % of control | dose: 100.0 mg/kg/injection, schedule: Q01DX009 (ip), vehicle: acetone 99 % of control | [15] 91 % of control | dose: 200.0 mg/kg/injection, schedule: Q01DX009 (ip), vehicle: acetone 106 % of control | [16] 93 % of control | dose: 400.0 mg/kg/injection, schedule: Q01DX009 (ip), vehicle: acetone 92 % of control

O=C1c2cc(Br)ccc2-c2ccc(Br)cc21
inactive: [13] 90 % of control | [14] 100 % of control | [15] 90 % of control

CN(C)CCCN1c2ccccc2CCc2ccc(Cl)cc21
inactive: dose: 3.12 mg/kg/injection, schedule: Q01DX009 (ip), vehicle: saline 97 % of control | dose: 6.25 mg/kg/injection, schedule: Q01DX009 (ip), vehicle: saline 108 % of control | dose: 12.5 mg/kg/injection, schedule: Q01DX009 (ip), vehicle: saline 94 % of control | dose: 25.0 mg/kg/injection, schedule: Q01DX009 (ip), vehicle: saline 94 % of control | dose: 25.0 mg/kg/injection, schedule: Q04DX003 (ip), vehicle: saline 96 % of control | dose: 50.0 mg/kg/injection, schedule: Q01DX009 (ip), vehicle: saline 101 % of control | dose: 50.0 mg/kg/injection, schedule: Q04DX003 (ip), vehicle: saline 96 % of control

Cc1cc(C)c(NC(=O)c2c(Cl)c(Cl)c(Cl)c(Cl)c2C(=O)O)c(C)c1
inactive: dose: 25.0 mg/kg/injection, schedule: Q01DX009 (ip), vehicle: Klucel (hydroxypropylcellulose) (HPC) 102 % of control | [17] 105 % of control | [5] 94 % of control and 116 % of control

Cc1c(Cl)cccc1NC(=O)Oc1ccc(Cl)cc1Cl
inactive: dose: 50.0 mg/kg/injection, schedule: Q01DX009 (ip), vehicle: saline with Tween-80 94 % of control | [11] 103 % of control | [12] 106 % of control

O=[N+]([O-])c1cc([N+](=O)[O-])c(Nc2cccc3ccccc23)c([N+](=O)[O-])c1
inactive: [17] 94 % of control | [5] 99 % of control | [6] 100 % of control | [7] 100 % of control | [8] 102 % of control | [10] 102 % of control

CCn1c(=O)n(C)c(=O)n1C(=O)c1ccccc1
inactive: dose: 100.0 mg/kg/injection, schedule: Q04DX003 (ip), vehicle: carboxymethylcellulose (CMC) 102 % of control | dose: 200.0 mg/kg/injection, schedule: Q04DX003 (ip), vehicle: carboxymethylcellulose (CMC) 104 % of control | dose: 400.0 mg/kg/injection, schedule: Q04DX003 (ip), vehicle: carboxymethylcellulose (CMC) 109 % of control

COc1ccc(-n2c(=O)c(N=Nc3ccc(Br)cc3)c(O)n(-c3ccc(C)cc3)c2=S)cc1
inactive: dose: 50.0 mg/kg/injection, schedule: Q01DX001 (ip), vehicle: Klucel (hydroxypropylcellulose) (HPC) 94 % of control | dose: 100.0 mg/kg/injection, schedule: Q01DX001 (ip), vehicle: Klucel (hydroxypropylcellulose) (HPC) 92 % of control | dose: 200.0 mg/kg/injection, schedule: Q01DX001 (ip), vehicle: Klucel (hydroxypropylcellulose) (HPC) 88 % of control
